Measured values as given in patent US12344599B2, “Prodigiosin analogs and methods of use” (Institute For Cancer Research, priority 2016, dated 2025).
pIC50: −log10 of the molar value.

What was measured:
HT29 = experiment: CellTiterGlo cell viability assay, HT29; assay type: cell-based; settings: Homo sapiens, HT-29; HT29, colorectal cancer, p53 R273H, 72 hours
Protocol: (§1) • 1) Cell lines: HT29, SW480, DLD-1, HCT116, and p53-null HCT116 cells, H1975, MDA-MD-231, U251, FaDu, CAL-27, PANC-1, Aspc-1, and MRC5 were obtained from the ATCC and cultured as recommended. Cells were regularly authenticated by bioluminescence, growth, and morphologic observation. The cells were routinely examined for Mycoplasma and all cell lines underwent STR authentication. • 2) Western blotting: After treatment, protein lysates were collected for Western blot analysis. 15 μg of protein was used for SDS-PAGE. After primary and secondary antibody incubations, the signal was detected by chemiluminescent detection kit, imaged by Syngene (Imgen Technologies). […] The cell viability was assessed by CellTiterGlo bioluminescent cell proliferation assay (Promega), following the manufacturer's protocol. Bioluminescence imaging was measured using the IVIS imager. Percentage of cell viability (mean±SEM) at each dose was calculated against the respective DMSO control. The IC50 values were determined from the sigmoidal dose-response curves using GraphPad Prims4. • 4) Caspase activity assay: Cells were seeded in 96-well plate (1×10^4 cells/well). […] The caspase 3/7 activity was assessed by Caspase-Glo® 3/7 Assay kit (Promega), following the manufacturer's protocol. Bioluminescence imaging was measured using the IVIS imager. […]

DLD1 = experiment: CellTiterGlo cell viability assay, DLD1; assay type: cell-based; settings: Homo sapiens, DLD-1; DLD1, colorectal cancer, p53 S241F, 72 hours
Protocol: as §1

HT29 cells = experiment: qRT-PCR of p53 target gene mRNA, HT29; assay type: cell-based, human; settings: HT29, 1 μM, 8 and 19 hours post-treatment
Protocol: as §1

[1] = test system: SW480, DLD1 and p53-null cell line HCT116; experiment: CellTiter-Glo luminescent cell viability assay (Example 1); assay type: cell-based, human
Protocol: SW480, DLD-1, DLD1-p73KD, HCT116, and p53-null HCT116, MRC5 and Wi38 cells were seeded at 5,000 cells per well on 96-well plates. […] Then, cells were mixed with an equal volume of CellTiter-Glo® reagents (Promega), following the manufacturer's protocol, and bioluminescence imaging was measured using the IVIS imager.

FaDu = experiment: CellTiterGlo cell viability assay, FaDu; assay type: cell-based; settings: Homo sapiens, head & neck squamous cell carcinoma, p53 R248L, 72 hours
Protocol: as §1

[2] = test system: ATF4 and CHOP in DLD1 cells; experiment: Western blot of ATF4 and CHOP, DLD1; assay type: cell-based, human
Protocol: as §1

HT29 tumor xenografts = assay type: in vivo, mouse
Protocol: One million HT29 were implanted subcutaneously in the flanks in each athymic nude mouse (female, 4-6 weeks old). The mice were divided at random into two groups and treated with the vehicle (10% DMSO, 20% Kollipher EL in PBS) and PG3-Oc (5 mg/kg, 3 times/week) by intraperitoneal injection when the tumor masses reached a size of 5 to 6 mm. Subsequently, tumor volumes were measured with a caliper and calculated using V=0.5×Length×Width^2. Twenty three days after treatment, the mice were euthanized and tumors were excised. H & E staining and Immunohistochemistry (IHC) of paraffin-embedded tumor and tissue sections were performed at the Fox Chase Cancer Center Histopathology Facility.
To evaluate the antitumor effects of PG3-Oc in vivo, a human tumor xenograft model was established by subcutaneous injection of human colon cancer cells into nude mice. After the tumor volume reached approximately 50 mm^3, mice were treated by i.p. injection with vehicle or PG3-Oc at 5 mg/kg 3 times weekly for 2 weeks.

[3] = nude mice, 5 mg/kg i.p. 3 times weekly

CCCCCCCCOC(=O)CCc1c(C)[nH]c(/C=C2\N=C(c3ccc[nH]3)C=C2OC)c1C [PG3-Oc, Octyl (Z)-3-(5-((4′-methoxy-1H,5′H-[2,2′-bipyrrol]-5′-ylidene)methyl)-2,4-dimethyl-1H-pyrrol-3-yl)propanoate]
pIC50 (HT29): 7.18
pIC50 (DLD1): 7.27
induction of p21 mRNA (HT29 cells): Over 3 fold
induction of cell death ([1]; SW480, DLD1, p53-null HCT116): potently induced cell death
IC50 values ([1]; SW480, DLD1, p53-null HCT116, 72 hours): within nanomolar range
pIC50 (FaDu): 7.18
concentration at which induction of ATF4 and CHOP occurred [2]: 5 µM
body weight versus vehicle treatment group (HT29 tumor xenografts; mouse, in vivo, ip, 5 mg/kg): No significant difference
Ki-67 expression in tumors as compared with the vehicle group (HT29 tumor xenografts; [3]): significantly decreased
PUMA in tumors as compared with controls (HT29 tumor xenografts; [3]): significantly induced
tumor volume as compared with vehicle-treated mice (HT29 tumor xenografts; [3]): significantly reduced
